Laboratory results as given in patent US20100285959A1, “HERBICIDAL MIXTURES” (priority 2006, published 2010).

Columns and labels:
Test in all cases: Test 24 growth chamber, postemergence
Settings in all cases: 17 DAA
galium (GALAP) = format: in vivo, Galium aparine
Experimental: (§1) Plants were treated postemergence at the 2-4 leaf growth stage, and each treatment was replicated three times. […] Plants were watered as needed. […] Results for barley and wheat are the means across varieties of the three replicates, and results for the weeds are the means of the three replicates.

[1] = test system: common lambsquarters (CHEAL); format: in vivo, Chenopodium album
Experimental: as §1

kochia (KCHSC) = format: in vivo, Kochia scoparia
Experimental: as §1

field violet (VIOAR) = format: in vivo, Viola arvensis
Experimental: as §1

common chickweed (STEME) = format: in vivo, Stellaria media
Experimental: as §1

redroot pigweed (AMARE) = format: in vivo, Amaranthus retroflexus
Experimental: as §1

wild buckwheat (POLCO) = format: in vivo, Polygonum convolvulus
Experimental: as §1

Russian thistle (SASKR) = format: in vivo, Salsola kali
Experimental: as §1

field poppy (PAPRH) = format: in vivo, Papaver rhoeas
Experimental: as §1

wild chamomile (MATCH) = format: in vivo, Matricaria chamomilla
Experimental: as §1

wild mustard (SINAR) = format: in vivo, Sinapis arvensis
Experimental: as §1

## Nc1c(Cl)c(F)nc(OCC(=O)O)c1Cl [Fluroxypyr]
Galium (GALAP); Fluroxypyr 62 g a.i./ha
  GALAP Obs (scale 0 to 100): 80
Galium (GALAP); Fluroxypyr 125 g a.i./ha
  GALAP Obs (scale 0 to 100): 85
[1]; Fluroxypyr 62 g a.i./ha
  CHEAL Obs (scale 0 to 100): 47
[1]; Fluroxypyr 125 g a.i./ha
  CHEAL Obs (scale 0 to 100): 58
Kochia (KCHSC); Fluroxypyr 62 g a.i./ha
  KCHSC Obs (scale 0 to 100): 68
Kochia (KCHSC); Fluroxypyr 125 g a.i./ha
  KCHSC Obs (scale 0 to 100): 73
Field violet (VIOAR); Fluroxypyr 62 g a.i./ha
  VIOAR Obs (scale 0 to 100): 73
Field violet (VIOAR); Fluroxypyr 125 g a.i./ha
  VIOAR Obs (scale 0 to 100): 82
Common chickweed (STEME); Fluroxypyr 62 g a.i./ha
  STEME Obs (scale 0 to 100): 75
Common chickweed (STEME); Fluroxypyr 125 g a.i./ha
  STEME Obs (scale 0 to 100): 83
Redroot pigweed (AMARE); Fluroxypyr 62 g a.i./ha
  AMARE Obs (scale 0 to 100): 67
Redroot pigweed (AMARE); Fluroxypyr 125 g a.i./ha
  AMARE Obs (scale 0 to 100): 77
Wild buckwheat (POLCO); Fluroxypyr 62 g a.i./ha
  POLCO Obs (scale 0 to 100): 68
Wild buckwheat (POLCO); Fluroxypyr 125 g a.i./ha
  POLCO Obs (scale 0 to 100): 75
Russian thistle (SASKR); Fluroxypyr 62 g a.i./ha
  SASKR Obs (scale 0 to 100): 75
Russian thistle (SASKR); Fluroxypyr 125 g a.i./ha
  SASKR Obs (scale 0 to 100): 75
Field poppy (PAPRH); Fluroxypyr 62 g a.i./ha
  PAPRH Obs (scale 0 to 100): 65
Field poppy (PAPRH); Fluroxypyr 125 g a.i./ha
  PAPRH Obs (scale 0 to 100): 73
Wild chamomile (MATCH); Fluroxypyr 62 g a.i./ha
  MATCH Obs (scale 0 to 100): 60
Wild chamomile (MATCH); Fluroxypyr 125 g a.i./ha
  MATCH Obs (scale 0 to 100): 65
Wild mustard (SINAR); Fluroxypyr 62 g a.i./ha
  SINAR Obs (scale 0 to 100): 75
Wild mustard (SINAR); Fluroxypyr 125 g a.i./ha
  SINAR Obs (scale 0 to 100): 75
